The values below come from PMC3229523, “Identification of Lactoferricin B Intracellular Targets Using an Escherichia coli Proteome Chip” (PLoS ONE, 2011).

Ends that are not written are not given here. * marks the point of attachment. Biotin = O=C1N[C@H]2[C@H](CS[C@H]2CCCCC(=O)*)N1

In assay [1] the test system is NrdB. In words: E. coli proteome chip assay, NrdB. Particulars: NrdB not in the top 153 proteins; 10 nM biotinylated LfcinB. The class given is binding, E. coli K-12. On the procedure: To fabricate the proteome chips, E. coli K-12 proteins were expressed and purified in a high-throughput fashion. The procedure was modified from Chen et al.. Briefly, E. coli protein expression clones fused with a 6×-His tag, provided by Dr. Mori, were first incubated with glass beads (Biospec Products Inc.) in 2× LB medium containing 30 µg/ml chloramphenicol in 96 DeepWell™ plates (Nunc) at 37°C overnight. The overnight cultures were then diluted with 2× LB that contains 30 µg/ml chloramphenicol to the OD595 value of 0.1. When the cells grew to an OD595 value of 0.7–0.9, 500 µM of isopropyl β-D-thiogalactoside (IPTG) was added to induce protein expression at 37°C for ∼3.5 h. The cultures were then harvested by centrifugation at 3220 g for 5 min at 4°C, and the pellets were stored at −80°C before purification. […]
For image processing of chip assay results, Genepix Pro 6.0 was used to align the protein spot of each individual protein and then all aligned protein image signals were exported as a text file. The text file was analyzed by ProCAT [17], a signal normalization method. The relative ability of LfcinB to bind to each protein was estimated by the ratio of the fluorescence intensity of LfcinB to the fluorescence intensity of an anti-His antibody after the normalization. […]

Assay [2] relates to E. coli. The following applies: cited from earlier work. The method, then:
Natural antimicrobial peptides are pervasive in plants, insects and animals. […] It is possible that LfcinB served as nutrient for bacteria in the beginning of the assay. […] In the middle part (2–4 h) of the growth curves, the ...

For assay [3], the system named is bacteria. Particulars: cited from earlier work. From the text:
Natural antimicrobial peptides are pervasive in plants, insects and animals.

The test system of assay [4] is E. coli K-12 BW25113 (isogenic parent) strain. In words: Knockout assay, isogenic parent strain. The assay is classed as cell-based. The following applies: 32 µM LfcinB, LB medium, 37°C, approx. 10^7 CFU/ml. On the procedure:
The E. coli K-12 BW25113 (isogenic parent) strain and the 16 knockout strains were obtained from the E. coli Genetic Resources at the Coli Genetic Stock Center (CGSC) at Yale University. The strains were inoculated into LB medium, and incubated at 37°C with shaking. After 16 h of incubation, the cultures were diluted to approximately 10^7 CFU/ml with LB medium. Thirty-two µM of LfcinB were then added to the cultures in a 96-well plate. PBS was used as a negative control. Cultures with LfcinB or PBS were then incubated at 37°C with shaking in a microplate reader and the growth was observed by measuring the OD595 value every 20 min for 7 h 20 min.

For assay [5], the system named is YjbM. In words: Fluorescence polarization assay, YjbM. The class given is binding, E. coli. The following applies: 100 nM DyLight 549-labeled LfcinB; protein 0.025-0.4 µM; data not shown. The text has this:
FP assays, investigations of the binding between two molecules in a homogeneous aqueous environment, were used to validate the identified 153 proteins. […] If a fluorophore only binds to a small molecule, such as peptide, the rotation of the complex is fast and the light emits in a different plane of polarization. Therefore, the degree of polarization is low. However, once a fluorophore binds to a large molecule, the bound complex is stimulated with polarized light. The light emits in the same polarized plane, and the complex is maintained in the same plane of polarization, causing an increase in the degree of polarization [22]–[24]. The amount of molecules binding to a fluorophore influences the degree of polarization. In this study, LfcinB was labeled with DyLight™ 549 as a reference value. Once the protein bound to LfcinB, like a fluorophore binds to a large molecule, a high degree of polarization is expected.
Before the assays, LfcinB was labeled with DyLight™ 549 and tested proteins were quantified with a Pierce® bicinchoninic acid (BCA™) protein assay (Thermo). To label the LfcinB, DyLight™ 549-NHS ester and LfcinB (68∶1, mole/mole) were mixed in PBS at room temperature for 1 h, a D-Salt™ polyacrylamide desalting column (Thermo) was used to remove excess dye and the labeling efficiency of the eluted solution was calculated. […]
For orientation: Fluorescence polarisation rises when a labelled molecule tumbles more slowly, as on binding a larger partner.

Consider “Lactoferricin B (Biotin-FKCRRWQWRMKKLGAPSITCVRRAF; ends and bridges not checked) [LfcinB]”, for which the “binding affinity in chip assays” value in assay [1] was “strong binding affinity with LfcinB”. Moreover, the “DNA synthesis at initiation of LfcinB into the medium” value in assay [2] is on record as “DNA synthesis was increased”. In assay [2] (sublethal concentration), the “DNA, RNA and protein synthesis of E. coli” value was “inhibited DNA, RNA and protein synthesis of E. coli”; the “filamentation during an SOS-response” value is “induced filamentation during an SOS-response”. Further, in assay [3], the “bacterial growth inhibition and membrane effect” value is “inhibits bacterial growth by impeding intracellular activities without destroying membrane integrity or penetrating the cytoplasmic membrane”; the “mechanism of antimicrobial activity” value was “pore-forming mechanism”. The “growth with LfcinB” value in assay [4] is “inhibited the growth of the isogenic parent strain”. Moreover, the “binding to YjbM” value in assay [5] is recorded as “confirmed to bind to LfcinB”.
